Experimental findings from ChEMBL document CHEMBL1201862, “PubChem BioAssay data set” (2004) are described below.

Each structure is given as a SMILES string. The source made the active and inactive calls.

Test [1] addresses Trypsin (Sus scrofa, UniProt P00761). In words: porcine trypsin inhibitors, dose response, selectivity assay for Rce1 protease inhibitor project, biochemical, quenched peptide fluorescence, cherry-pick (AID 488789).
Test [2] addresses FAD-linked sulfhydryl oxidase ALR (Homo sapiens, UniProt P55789). The test can be described thus: inhibitors of human ALR sulfhydryl oxidase, dose response, biochemical, H2O2 detection, luminescence, cherry-pick (AID 493248).
A short description of test [3]: A cytotoxicity screen of small molecule inhibitors of the PhoP region in Salmonella typhi identified in the primary screen. [Related pubchem assays: 1850, 1864, 1985 ]. In kind it is functional.
Test [4] addresses Melanocortin receptor 4 (Homo sapiens, UniProt P32245). The test can be described thus: MC4R antagonist potency on cAMP, dose response, cell-based, TR-FRET, biased antagonists (AID 602298).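 Further: antagonist potency against agonist-stimulated cAMP production.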 In kind it is functional.
The nature of test [5]: nonselective inhibitors of cellular cAMP signaling, dose response, counter-screen for MC4R biased antagonist project, cell-based, TR-FRET cAMP detection (AID 602305).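 Further: U2OS cells stimulated with forskolin near its EC80 as the cAMP inducer; potency is for inhibition of forskolin-stimulated cAMP signaling.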 In kind it is functional.
The nature of test [6]: inhibitors of intracellular T. cruzi replication, confirmation, NIH3T3 host cells, beta-gal luminescence (AID 2044).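 Further: intracellular parasites grown in NIH/3T3 mouse fibroblasts as host cells; luminescent beta-galactosidase reporter signal from transgenic T. cruzi replicating inside host cells; inhibitors lower the luminescence signal.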 In kind it is functional, cell-based.
Test [7] can be described thus: cytotoxicity toward NIH3T3 fibroblasts, dose response, counter-screen, cell-based, ATP luminescence, mouse fibroblasts (AID 2010).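 Further: cells exposed to compound for about 90 hours before reading.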 In kind it is functional.
Test [8] deals with Induced myeloid leukemia cell differentiation protein Mcl-1 (Homo sapiens, UniProt Q07820). In kind it is functional.
For test [9], the target named is Cytochrome P450 2C19 (Homo sapiens, UniProt P33261). In words: Cytochrome panel assay with activity outcomes. Panel member name: p450-cyp2c19 Compounds with AC50 equal or less than 10 uM are considered active. As to conditions: read-out: AC50. In kind it is functional.
Test [10] deals with Beta-galactosidase (Escherichia coli, UniProt Q8VNN2). The test can be described thus: beta-galactosidase enzyme inhibitors and activators, dose response, artefact control for CCR6 antagonist project, biochemical, E. coli enzyme, set 3 (AID 504712). Format: functional.
Sequence of Beta-galactosidase (Q8VNN2 whole entry): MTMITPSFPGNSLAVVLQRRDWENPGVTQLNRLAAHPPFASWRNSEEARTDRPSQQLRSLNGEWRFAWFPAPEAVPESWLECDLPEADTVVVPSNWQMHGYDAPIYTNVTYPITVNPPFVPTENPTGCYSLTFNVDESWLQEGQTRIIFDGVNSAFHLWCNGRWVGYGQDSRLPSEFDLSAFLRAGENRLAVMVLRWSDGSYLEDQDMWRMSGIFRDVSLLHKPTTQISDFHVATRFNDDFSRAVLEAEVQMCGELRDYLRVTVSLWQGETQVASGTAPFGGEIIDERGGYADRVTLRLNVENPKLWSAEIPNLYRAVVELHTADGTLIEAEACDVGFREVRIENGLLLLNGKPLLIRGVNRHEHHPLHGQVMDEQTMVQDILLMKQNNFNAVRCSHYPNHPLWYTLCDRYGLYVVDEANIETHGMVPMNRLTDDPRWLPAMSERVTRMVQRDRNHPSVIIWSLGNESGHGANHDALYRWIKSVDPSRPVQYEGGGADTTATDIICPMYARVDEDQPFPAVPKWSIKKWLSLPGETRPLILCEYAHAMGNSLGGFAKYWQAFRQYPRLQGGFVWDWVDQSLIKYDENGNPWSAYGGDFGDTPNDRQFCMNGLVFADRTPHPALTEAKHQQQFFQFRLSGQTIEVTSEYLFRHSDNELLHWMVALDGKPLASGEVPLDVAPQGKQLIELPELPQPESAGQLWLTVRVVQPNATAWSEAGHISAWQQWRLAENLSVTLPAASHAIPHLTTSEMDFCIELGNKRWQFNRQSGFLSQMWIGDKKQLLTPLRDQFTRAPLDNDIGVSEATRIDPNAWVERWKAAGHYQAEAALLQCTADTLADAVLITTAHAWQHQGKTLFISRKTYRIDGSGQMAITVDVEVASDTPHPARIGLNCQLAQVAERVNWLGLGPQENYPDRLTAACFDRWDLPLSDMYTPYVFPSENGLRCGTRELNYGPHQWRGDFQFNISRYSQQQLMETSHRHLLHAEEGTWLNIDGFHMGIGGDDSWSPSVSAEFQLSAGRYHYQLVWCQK
For test [11], the target named is Genome polyprotein (dengue virus type 2, UniProt P29990). In words: Dengue-2 NS5 methyltransferase inhibitors, primary screen, biochemical, confirmation dose response (AID 588689). In kind it is functional.
Test [12] addresses T1, Apoptotic protease-activating factor 1 (Homo sapiens, UniProt O14727).
T1 sequence (O14727 whole entry): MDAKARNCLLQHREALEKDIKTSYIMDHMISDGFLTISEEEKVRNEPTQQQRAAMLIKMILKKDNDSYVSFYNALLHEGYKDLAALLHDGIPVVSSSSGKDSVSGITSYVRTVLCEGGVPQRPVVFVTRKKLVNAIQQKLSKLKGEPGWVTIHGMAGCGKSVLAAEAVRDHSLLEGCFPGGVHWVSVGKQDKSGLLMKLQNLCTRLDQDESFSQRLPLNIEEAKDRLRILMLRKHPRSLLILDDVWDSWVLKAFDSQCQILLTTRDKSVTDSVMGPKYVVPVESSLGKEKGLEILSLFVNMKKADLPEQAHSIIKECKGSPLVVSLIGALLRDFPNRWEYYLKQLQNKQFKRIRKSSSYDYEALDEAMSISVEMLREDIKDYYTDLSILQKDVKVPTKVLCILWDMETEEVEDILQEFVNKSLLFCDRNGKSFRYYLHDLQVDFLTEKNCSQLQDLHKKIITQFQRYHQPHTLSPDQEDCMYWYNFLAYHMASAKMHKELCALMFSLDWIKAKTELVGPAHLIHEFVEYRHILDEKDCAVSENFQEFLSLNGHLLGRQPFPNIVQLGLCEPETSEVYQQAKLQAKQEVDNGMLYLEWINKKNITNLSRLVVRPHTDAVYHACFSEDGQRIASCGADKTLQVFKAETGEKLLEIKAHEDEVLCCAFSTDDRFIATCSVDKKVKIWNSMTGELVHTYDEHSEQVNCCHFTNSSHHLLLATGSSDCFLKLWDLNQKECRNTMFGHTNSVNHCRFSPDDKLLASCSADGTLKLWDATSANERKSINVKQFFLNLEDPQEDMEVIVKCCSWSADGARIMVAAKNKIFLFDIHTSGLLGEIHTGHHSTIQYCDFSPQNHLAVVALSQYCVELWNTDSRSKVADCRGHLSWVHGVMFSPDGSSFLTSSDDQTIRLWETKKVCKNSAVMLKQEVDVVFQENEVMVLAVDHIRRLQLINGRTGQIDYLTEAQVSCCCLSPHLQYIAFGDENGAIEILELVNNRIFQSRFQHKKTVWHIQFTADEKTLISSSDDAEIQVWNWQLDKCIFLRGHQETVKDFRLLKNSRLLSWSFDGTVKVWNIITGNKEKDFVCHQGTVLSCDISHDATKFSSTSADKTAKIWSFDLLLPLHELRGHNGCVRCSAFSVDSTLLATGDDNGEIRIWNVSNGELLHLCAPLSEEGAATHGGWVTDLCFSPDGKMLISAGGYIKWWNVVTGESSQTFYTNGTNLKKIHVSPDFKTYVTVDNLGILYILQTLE
In kind it is functional.

Test [13] is described as follows: Luminescence Cell-Based Dose Response to Identify Activators of 5'UTR Stem-Loop Driven Prion Protein mRNA Translation in H4-C Neuroglioblastoma Cells. [Related pubchem assays: 1829 (Project Summary), 1814 (Primary HTS)]. Format: functional.
Test [14] in a line: Luminescence Cell-Based Dose Response HTS to Identify Activators of Luciferase Translation or Activity in H4 […] Cells. [Related pubchem assays: 1829 (Project Summary), 1814 (Primary HTS)]. Format: functional.
Test [15] relates to H4. In words: Luminescence Cell-Based Dose Response HTS to Identify Activators of 5'UTR Stem-Loop Driven Prion Protein mRNA Translation in H4 Neuroglioblastoma Cells. [Related pubchem assays: 1829 (Project Summary), 1814 (Primary HTS)]. In kind it is functional. The settings on record: Homo sapiens.
The nature of test [16]: Luminescence Cell-Based Dose Response to Identify Activators of Luciferase Translation or Activity in H4-C Neuroglioblastoma Cells. [Related pubchem assays: 1829 (Project Summary), 1814 (Primary HTS)]. In kind it is functional.
Test [17] can be described thus: Luminescence Cell-Based Dose Confirmation to Identify Activators of 5'UTR Stem-Loop Driven Alpha-Synuclein mRNA Translation in H4 Neuroglioblastoma Cells. [Related pubchem assays: 1829 (Project Summary), 1814 (Primary HTS)]. Format: functional.
Test [18] in a line: cells. Format: functional, cell-based.
Test [19] in a line: cells. In kind it is functional, cell-based. This is another data set of the same source.
The target of test [20] is Peroxisome proliferator-activated receptor gamma/Nuclear receptor corepressor 2 (Homo sapiens, UniProt P37231+Q9Y618). In words: Counterscreen for NR2E3 inverse agonists: TR-FRET-based biochemical high throughput dose response assay to identify inverse agonists of the interaction between peroxisome proliferator-activated receptor gamma (PPARg) and nuclear receptor co-repressor 2 (NCOR2). Format: functional.
Sequence of Peroxisome proliferator-activated receptor gamma/Nuclear receptor corepressor 2 (P37231 whole entry): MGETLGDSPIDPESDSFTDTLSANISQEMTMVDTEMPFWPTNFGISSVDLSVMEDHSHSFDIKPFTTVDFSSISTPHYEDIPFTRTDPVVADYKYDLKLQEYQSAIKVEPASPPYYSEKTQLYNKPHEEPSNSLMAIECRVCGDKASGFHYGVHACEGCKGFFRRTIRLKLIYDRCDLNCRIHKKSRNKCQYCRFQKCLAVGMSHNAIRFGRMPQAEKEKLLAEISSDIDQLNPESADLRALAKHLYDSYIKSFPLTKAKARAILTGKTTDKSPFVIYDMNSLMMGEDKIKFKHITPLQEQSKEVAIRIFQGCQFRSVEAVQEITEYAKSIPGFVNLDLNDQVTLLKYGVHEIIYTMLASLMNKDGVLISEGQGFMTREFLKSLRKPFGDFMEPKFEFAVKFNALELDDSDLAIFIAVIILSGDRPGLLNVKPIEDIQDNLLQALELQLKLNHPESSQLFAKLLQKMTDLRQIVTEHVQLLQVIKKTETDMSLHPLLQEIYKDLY
Sequence of Peroxisome proliferator-activated receptor gamma/Nuclear receptor corepressor 2 (Q9Y618 whole entry): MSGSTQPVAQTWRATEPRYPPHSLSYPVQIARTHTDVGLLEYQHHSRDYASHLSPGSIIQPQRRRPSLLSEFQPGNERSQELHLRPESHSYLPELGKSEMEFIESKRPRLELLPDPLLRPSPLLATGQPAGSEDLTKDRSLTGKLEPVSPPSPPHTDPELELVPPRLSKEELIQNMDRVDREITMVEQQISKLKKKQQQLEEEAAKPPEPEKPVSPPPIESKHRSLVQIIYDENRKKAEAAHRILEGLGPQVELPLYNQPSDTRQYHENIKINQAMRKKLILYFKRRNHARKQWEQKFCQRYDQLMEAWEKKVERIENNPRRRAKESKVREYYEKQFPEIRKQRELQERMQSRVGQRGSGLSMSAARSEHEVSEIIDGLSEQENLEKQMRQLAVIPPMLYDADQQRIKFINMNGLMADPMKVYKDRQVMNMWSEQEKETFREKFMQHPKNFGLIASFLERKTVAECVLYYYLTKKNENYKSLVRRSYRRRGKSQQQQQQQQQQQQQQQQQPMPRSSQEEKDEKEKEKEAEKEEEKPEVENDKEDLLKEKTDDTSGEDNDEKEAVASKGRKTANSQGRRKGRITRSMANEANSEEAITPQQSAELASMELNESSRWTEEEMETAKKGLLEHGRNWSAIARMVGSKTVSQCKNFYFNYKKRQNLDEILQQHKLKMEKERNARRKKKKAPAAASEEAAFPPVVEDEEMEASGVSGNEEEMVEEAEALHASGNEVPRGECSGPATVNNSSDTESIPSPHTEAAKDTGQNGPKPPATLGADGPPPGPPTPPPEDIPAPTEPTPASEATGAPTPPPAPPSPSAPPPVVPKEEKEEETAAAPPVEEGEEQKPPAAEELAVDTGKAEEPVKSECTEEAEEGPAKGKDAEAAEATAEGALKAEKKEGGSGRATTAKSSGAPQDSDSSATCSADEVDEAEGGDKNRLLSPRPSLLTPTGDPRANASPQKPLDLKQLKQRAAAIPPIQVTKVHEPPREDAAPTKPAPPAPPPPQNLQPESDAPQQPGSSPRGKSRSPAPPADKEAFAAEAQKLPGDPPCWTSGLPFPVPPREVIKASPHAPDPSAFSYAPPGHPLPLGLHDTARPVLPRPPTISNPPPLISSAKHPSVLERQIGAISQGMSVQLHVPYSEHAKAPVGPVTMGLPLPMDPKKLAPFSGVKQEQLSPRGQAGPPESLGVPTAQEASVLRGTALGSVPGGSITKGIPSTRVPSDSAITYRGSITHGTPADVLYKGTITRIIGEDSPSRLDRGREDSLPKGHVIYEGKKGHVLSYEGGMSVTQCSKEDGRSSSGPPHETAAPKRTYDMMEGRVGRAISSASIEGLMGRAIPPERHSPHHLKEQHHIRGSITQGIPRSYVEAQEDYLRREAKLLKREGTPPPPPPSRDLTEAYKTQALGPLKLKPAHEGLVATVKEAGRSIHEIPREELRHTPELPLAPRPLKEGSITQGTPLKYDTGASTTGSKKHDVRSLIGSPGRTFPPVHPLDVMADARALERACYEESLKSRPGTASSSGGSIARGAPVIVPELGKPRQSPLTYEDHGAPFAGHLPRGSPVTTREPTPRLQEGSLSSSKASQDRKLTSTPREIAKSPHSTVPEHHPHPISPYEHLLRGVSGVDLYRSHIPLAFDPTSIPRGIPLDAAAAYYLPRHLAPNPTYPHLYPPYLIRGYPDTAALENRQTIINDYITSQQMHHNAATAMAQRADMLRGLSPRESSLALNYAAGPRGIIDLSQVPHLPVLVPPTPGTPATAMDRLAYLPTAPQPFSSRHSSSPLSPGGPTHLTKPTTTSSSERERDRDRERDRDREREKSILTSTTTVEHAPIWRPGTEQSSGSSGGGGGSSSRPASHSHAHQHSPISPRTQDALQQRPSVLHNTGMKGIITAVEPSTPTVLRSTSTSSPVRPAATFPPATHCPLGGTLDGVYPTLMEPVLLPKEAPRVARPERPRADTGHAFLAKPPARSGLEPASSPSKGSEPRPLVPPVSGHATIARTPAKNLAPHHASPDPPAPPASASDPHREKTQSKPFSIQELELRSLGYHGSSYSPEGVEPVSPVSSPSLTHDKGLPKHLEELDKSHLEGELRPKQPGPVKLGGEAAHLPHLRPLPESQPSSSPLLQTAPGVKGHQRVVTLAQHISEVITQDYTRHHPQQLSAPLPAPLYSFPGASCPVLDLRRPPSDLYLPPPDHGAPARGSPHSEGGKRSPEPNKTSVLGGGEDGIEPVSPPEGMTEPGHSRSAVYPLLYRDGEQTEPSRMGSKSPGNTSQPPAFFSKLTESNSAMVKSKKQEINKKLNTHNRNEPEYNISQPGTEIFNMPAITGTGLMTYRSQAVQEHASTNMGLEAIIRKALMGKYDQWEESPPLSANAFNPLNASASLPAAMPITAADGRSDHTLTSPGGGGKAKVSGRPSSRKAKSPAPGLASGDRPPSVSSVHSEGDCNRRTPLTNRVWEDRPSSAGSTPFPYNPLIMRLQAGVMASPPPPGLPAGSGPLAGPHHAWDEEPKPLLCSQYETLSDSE

The target in test [21] is Photoreceptor-specific nuclear receptor (Homo sapiens, UniProt Q9Y5X4). The test can be described thus: NR2E3 inverse agonists, dose response, biochemical, TR-FRET (AID 463256). Format: functional.
Sequence of Photoreceptor-specific nuclear receptor (Q9Y5X4 whole entry): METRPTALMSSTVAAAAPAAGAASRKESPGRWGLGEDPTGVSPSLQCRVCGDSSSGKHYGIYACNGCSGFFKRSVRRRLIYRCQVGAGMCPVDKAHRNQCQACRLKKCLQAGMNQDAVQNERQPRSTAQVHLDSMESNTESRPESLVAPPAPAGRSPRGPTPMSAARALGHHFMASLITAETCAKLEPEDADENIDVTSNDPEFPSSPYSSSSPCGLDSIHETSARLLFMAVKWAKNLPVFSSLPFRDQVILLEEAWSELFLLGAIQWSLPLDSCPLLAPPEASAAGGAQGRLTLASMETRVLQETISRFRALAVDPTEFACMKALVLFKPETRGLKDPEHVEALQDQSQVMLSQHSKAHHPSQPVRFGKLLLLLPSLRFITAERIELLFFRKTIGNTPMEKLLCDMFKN
The nature of test [22]: THP-1 cell cytotoxicity, dose response, cytotoxicity control for Vif-APOBEC3G degradation inhibitor project, THP-1 cells (AID 1117359). In kind it is functional. The settings on record: Human immunodeficiency virus 1, THP-1.
Test [23] deals with HeLa. The test can be described thus: HeLa cell cytotoxicity, dose response, cytotoxicity control, ATP luminescence, cherry-pick samples (AID 687004). In kind it is functional, cell-based. As to conditions: Homo sapiens.
The target in test [24] is T2, Microphthalmia-associated transcription factor (Homo sapiens, UniProt O75030).
T2 sequence (O75030 whole entry): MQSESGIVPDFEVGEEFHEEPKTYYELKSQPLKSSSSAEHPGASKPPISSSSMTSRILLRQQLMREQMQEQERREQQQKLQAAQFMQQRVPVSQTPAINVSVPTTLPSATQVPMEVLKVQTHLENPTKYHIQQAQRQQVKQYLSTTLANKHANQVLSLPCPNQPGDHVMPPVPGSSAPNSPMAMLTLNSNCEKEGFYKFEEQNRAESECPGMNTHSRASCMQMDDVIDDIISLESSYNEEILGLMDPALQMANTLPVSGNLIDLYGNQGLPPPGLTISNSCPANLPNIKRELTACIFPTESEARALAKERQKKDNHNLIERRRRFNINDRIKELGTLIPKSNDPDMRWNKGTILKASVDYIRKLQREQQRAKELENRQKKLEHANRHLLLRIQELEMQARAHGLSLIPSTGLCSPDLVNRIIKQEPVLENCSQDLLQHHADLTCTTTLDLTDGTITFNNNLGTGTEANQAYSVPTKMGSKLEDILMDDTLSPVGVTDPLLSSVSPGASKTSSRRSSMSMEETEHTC
The test can be described thus: TRPM1 promoter luciferase signal decrease, dose response, MITF inhibitor project, cell-based, SK-MEL-5, cherry-picked, set 3 (AID 493073).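 Further: SK-MEL-5 melanoma cells with luciferase driven by the MITF target TRPM1 promoter.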 Format: functional.

Sequence of Melanocortin receptor 4 (P32245 whole entry): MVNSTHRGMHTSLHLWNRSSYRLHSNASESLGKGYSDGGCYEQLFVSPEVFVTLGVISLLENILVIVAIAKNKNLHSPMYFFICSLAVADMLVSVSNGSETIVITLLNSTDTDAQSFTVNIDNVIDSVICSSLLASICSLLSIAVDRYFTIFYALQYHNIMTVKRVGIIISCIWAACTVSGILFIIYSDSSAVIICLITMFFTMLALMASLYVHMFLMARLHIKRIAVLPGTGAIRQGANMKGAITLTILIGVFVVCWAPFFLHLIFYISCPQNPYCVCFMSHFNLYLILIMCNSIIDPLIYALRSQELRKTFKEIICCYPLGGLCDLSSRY
Sequence of FAD-linked sulfhydryl oxidase ALR (P55789 whole entry): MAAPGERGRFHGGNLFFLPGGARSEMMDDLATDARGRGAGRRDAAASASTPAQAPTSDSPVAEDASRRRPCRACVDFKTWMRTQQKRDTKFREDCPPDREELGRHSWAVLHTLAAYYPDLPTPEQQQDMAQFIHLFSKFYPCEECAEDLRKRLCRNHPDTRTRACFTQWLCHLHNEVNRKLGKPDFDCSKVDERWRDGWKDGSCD

Turning to `CCS(=O)(=O)Nc1c(C(=O)O)[nH]c2ccccc12`, the AC50 in test [1] is > 100 µM (inactive); in [2] it was 600 nM (active).

With `Cn1c(=O)c(=O)n(C)c2cc(S(=O)(=O)N3CCc4ccccc43)ccc21`, in [3], the EC50 was > 50 µM (active).

With `CN(C)CCCN1C(=O)C(O)=C(C(=O)c2cc3ccccc3o2)C1c1ccccn1` (centres undefined), the IC50 in test [4] and in test [5] was > 64.6 µM (inactive) each time.

`CCn1c(C)cc(/C=C2\NC(=O)N(Cc3ccc(Cl)cc3)C2=O)c1C`: the concentration giving a half-maximal response (EC50) in test [6] was 178 nM (active); in test [7], > 30 µM (not active). Also, in [8], the IC50 was 3.37 µM (active). For the same compound, the AC50 in test [9] is 1.78 µM (inconclusive).

As for `CN(C)c1c([N+](=O)[O-])cc(N2C(=O)C=CC2=O)cc1[N+](=O)[O-]`, the IC50 in [10] is > 66.6 µM (inactive); in test [11] it was 11.1 µM (active).

In the case of `Cc1cccc(NC(=O)CSCC(=O)N(C)Cc2ccc(Cl)c(Cl)c2)c1`, in test [12], the IC50 is > 100 µM (inactive).

In the case of `CSc1nc(-c2ccc(Cl)cc2)c[nH]1`, the EC50 in [13] was 2.01 µM (active); in test [14], 284 nM (active); in test [15] it was < 0.1 µM (active); in test [16], 276 nM (active); in test [17] it was 386 nM (active). Also, in test [2], the AC50 was 2020 nM (active).

Consider `Nc1nn2cc(-c3ccccc3)nc2c2ccccc12`, for which the EC50 in test [3] was > 50 µM (active).

Turning to `CN1C(=O)C2CN(CCc3ccccc3)CNC2N(C)C1=O` (centres undefined), in test [18], the IC50 is > 29.9 µM (inactive). For the same compound, the EC50 in test [19] was > 29.9 µM (inactive).

For the compound `CCCc1nc(SCC(=O)Nc2nc3c(s2)CCCC3)c2ccccc2n1`, the IC50 in [4] and in test [5] was > 64.6 µM (inactive) each time.

For the compound `O=C(Nc1ccnc(-c2cccnc2)n1)c1ccc(Cl)cc1`, the values for the IC50 in test [20] and in test [21] were 5.27 µM (active) and 5.23 µM (active), respectively.

With `COc1cc(OC)c2ccc(=O)oc2c1C(CCN1CCCC(C)C1)c1ccc2c(c1)OCO2` (centres undefined), the CC50 in [22] was > 40 µM (active).

On to `C[C@@H]1CN([C@@H](C)CO)C(=O)CCCn2nncc2CO[C@@H]1CN(C)Cc1cccc(C(F)(F)F)c1`, for which the AC50 in test [23] was > 52 µM (inactive).

Turning to `Cc1cc(C)c(NC(=O)C2CCCN2CCC(C)C)c(C)c1` (centres undefined), the AC50 in test [23] is > 52 µM (inactive).

Consider `Cc1cccc(C)c1NC(=O)C(CCc1ccccc1)N1CCC(c2ccccc2)CC1` (centres undefined), for which the AC50 in test [23] was > 52 µM (inactive).

With `CC/N=c1\scc(C)n1/N=C/c1ccsc1`, the EC50 in test [13] is 0.66 µM (active); in test [14] it was 16600 nM (active); in test [15], 11.1 µM (active); in [16], 582 nM (active); in [17], 1080 nM (active).

Take `COc1ccc2oc(C(=O)Nc3ccc(S(=O)(=O)N(C)C4CCN(C)CC4)cc3)c(C)c2c1`: the EC50 was 170 nM (active) in test [6] and 9.46 µM (active) in test [7]. Moreover, the AC50 in [24] is 13 µM (active).

On to `O=C(CSc1nccc(O)n1)N1CCc2ccccc2C1`, for which, in [18], the IC50 was > 29.9 µM (inactive). In addition, in test [19], the EC50 is > 29.9 µM (inactive).

Turning to `Cc1cc2oc(C(=O)NCc3ccncc3)c(C)c2cc1C`, the EC50 in test [3] is > 50 µM (active).

Consider `Cc1ccc(OCC(=O)Nc2ccc3c(c2)OCO3)c(C)c1`, for which the EC50 in test [13] was > 12 µM (not active); in test [14], < 100 nM (active); in test [15], 31.7 µM (active); in [16], 1100 nM (active); in [17], 914 nM (active).

As to `O=C(Nc1ccc(F)c([N+](=O)[O-])c1)C1CC(=O)N(Cc2ccccc2)C1` (centres undefined), the IC50 in test [4] and in [5] was > 64.6 µM (inactive) throughout.

Turning to `CN(C)C1C(=O)C(C(N)=O)=C(O)C2(O)C(O)=C3C(=O)c4c(O)cccc4C(C)(O)C3CC12` (centres undefined), the EC50 in test [3] was > 50 µM (active).

`Cc1ccccc1C(=O)c1cccn1CC(=O)NCCC1=CCCCC1`: in [3], the EC50 is > 50 µM (active).

Regarding `CCOc1cnn(Cc2ccccc2)c(=O)c1SCc1ccccc1`, the IC50 in test [20] was > 39.8 µM (not active); in [21], 15.5 µM (not active).

As to `CSc1cccc(NC(=O)c2cc(S(=O)(=O)N3CCCCC3)c[nH]2)c1`, the IC50 in test [20] is 4.12 µM (active); in test [21] it was 3.45 µM (active).

Regarding `Cc1nn(-c2ccccc2)c(O)c1/C=N/N1C(=O)c2ccc3c4c(ccc(c24)C1=O)CC3`, the IC50 in [10] was > 66.6 µM (inactive).
